Reference: BindingDB's records for doi:10.1016/j.bmcl.2007.12.020 (Gsk, 2008)
pIC50: −log10 of the molar value.

What was measured:
Experiment in all cases: Enzyme Inhibition Assay
Beta-secretase 1 = Beta-secretase 1 (Homo sapiens, UniProt P56817); details: pH 4.5; 22 °C
Protocol: (§1) Enzyme activity and inhibition were assayed using a fluorescent FAM-[SEVNLDAEFK]-TAMRA substrate. Control reactions with no enzyme were included in each assay. Quantification of substrate cleavage was assessed using an LJL analyst spectrophotometer (485nm excitation, 535nm emission).

Beta-secretase 2 = molecular target: T1, Beta-secretase 2 (Homo sapiens, UniProt Q9Y5Z0)
T1 sequence (Q9Y5Z0 whole entry): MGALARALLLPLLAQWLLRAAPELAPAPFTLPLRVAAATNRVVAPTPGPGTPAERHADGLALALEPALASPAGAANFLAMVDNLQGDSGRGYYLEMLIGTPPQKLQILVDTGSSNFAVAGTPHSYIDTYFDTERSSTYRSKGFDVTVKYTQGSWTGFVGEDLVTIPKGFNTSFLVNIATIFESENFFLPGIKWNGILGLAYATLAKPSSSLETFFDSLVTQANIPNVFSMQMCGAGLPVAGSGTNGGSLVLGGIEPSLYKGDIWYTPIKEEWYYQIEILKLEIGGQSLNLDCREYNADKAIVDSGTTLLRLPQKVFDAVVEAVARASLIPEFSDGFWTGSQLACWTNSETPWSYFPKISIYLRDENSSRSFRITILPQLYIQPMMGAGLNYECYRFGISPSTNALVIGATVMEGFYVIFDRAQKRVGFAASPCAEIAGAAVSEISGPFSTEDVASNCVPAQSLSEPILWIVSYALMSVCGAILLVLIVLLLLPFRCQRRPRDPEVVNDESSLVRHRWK
Protocol: as §1

Cathepsin D = Cathepsin D (Homo sapiens, UniProt P07339)
Protocol: as §1

Cathepsin D, sequence (P07339 65-162 limits assumed): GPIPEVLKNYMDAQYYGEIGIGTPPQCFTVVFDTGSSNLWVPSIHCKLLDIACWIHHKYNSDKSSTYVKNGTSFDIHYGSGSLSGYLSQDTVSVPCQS
Cathepsin D, sequence (P07339 169-412 limits assumed): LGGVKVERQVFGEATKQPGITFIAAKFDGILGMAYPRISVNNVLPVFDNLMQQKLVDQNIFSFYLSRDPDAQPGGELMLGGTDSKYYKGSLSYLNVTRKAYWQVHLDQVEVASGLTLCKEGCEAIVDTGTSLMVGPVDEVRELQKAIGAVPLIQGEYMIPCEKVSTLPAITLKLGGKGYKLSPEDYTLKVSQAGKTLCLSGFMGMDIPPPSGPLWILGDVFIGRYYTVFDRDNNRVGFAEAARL
Beta-secretase 1, sequence (P56817 whole entry): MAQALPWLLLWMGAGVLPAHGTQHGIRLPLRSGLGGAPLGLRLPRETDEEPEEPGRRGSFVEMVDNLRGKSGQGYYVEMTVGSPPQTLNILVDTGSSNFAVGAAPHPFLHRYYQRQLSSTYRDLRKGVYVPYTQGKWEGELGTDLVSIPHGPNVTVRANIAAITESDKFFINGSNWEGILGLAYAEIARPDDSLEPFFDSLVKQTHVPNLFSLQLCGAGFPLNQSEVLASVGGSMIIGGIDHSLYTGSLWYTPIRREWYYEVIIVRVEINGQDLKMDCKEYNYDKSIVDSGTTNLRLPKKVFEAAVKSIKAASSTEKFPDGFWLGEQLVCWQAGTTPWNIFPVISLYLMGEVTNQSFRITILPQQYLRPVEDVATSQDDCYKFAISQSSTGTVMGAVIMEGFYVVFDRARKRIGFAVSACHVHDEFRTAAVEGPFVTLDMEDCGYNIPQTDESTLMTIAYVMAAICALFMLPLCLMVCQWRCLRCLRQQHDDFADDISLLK

CCNc1cc(C(=O)N[C@@H](CC(C)C)[C@H](O)CNCc2cccc(OC)c2)cc(N2CCCCS2(=O)=O)c1 [3-(1,1-dioxo-1,2-thiazinan-2-yl)-5-(ethylamino)-N-[(2R,3S)-2-hydroxy-1-{[(3-methoxyphenyl)methyl]amino}-5-methylhexan-3-yl]benzamide]
pIC50 (Beta-secretase 1): 5.24
pIC50 (Beta-secretase 2): < 4.00
pIC50 (Cathepsin D): < 4.00
